Data taken from patent US20070116833A1, “High-Potency Sweetener Composition with Calcium and Compositions Sweetened Therewith” (THE COCA-COLA COMPANY, priority 2005, published 2007).

Columns and labels:
[1] = tested on: panel of experts in the sensory evaluation of foods and beverages; experiment: Sensory evaluation of sweetness linger by expert panel; assay type: in vivo; parameters: key: 0: no sweetness linger; 1: very slight sweetness linger; 2: slight sweetness linger; 3: moderate sweetness linger; 4: moderately high sweetness linger; 5: high sweetness linger; conditions: for Sweetness Linger rating (defined for controls): ratings defined for the protocol, REBA control sample 500 ppm; for sweetness linger: scale 0-5
Procedure: Sensory evaluation of the samples prepared in Example Set G was carried out under the following protocol, similar to that described hereinabove. In this test protocol, none of the samples were swallowed. All samples were expectorated and the mouth was rinsed with water after the tasting. Immediately upon sensing maximal sweetness, the sample was expectorated, the mouth was rinsed with water and the rate of sweetness decay (“Sweetness Linger”) was measured, where attention was focused on the sweetness 3-4 min after the water rinse. After sample tasting was complete, a salty oyster cracker was chewed followed by a water rinse, and at least 5 minutes followed before tasting the next sample. The sweetness linger was rated by a panel of experts in the sensory evaluation of foods and beverages using the following scale: 0=no sweetness linger, 1 =very slight sweetness linger, 2 slight sweetness linger, 3=moderate sweetness linger, 4 =moderately high sweetness linger, 5 high sweetness linger.
The “Sweetness Linger” rating for sucrose observed by this protocol is defined as 0. The Sweetness Linger of a 500 ppm of REBA control sample is defined as 5. Experimental samples were tasted by the same protocol, always allowing sufficient time between samples to ensure re-equilibration of the sensory system. Re-tasting of control samples during the course of the experiment was allowed and encouraged.
The comparison taste test was performed between two controls and addition of sweet taste improving additive on the onset and/or sweetness linger.
Sweet taste improving compositions were combined with a REBA solution to determine their effect on sweetness linger. Screening of the initial sample, or further dilutions, allowed identification of concentrations which were just above-threshold, herein defined as “near-threshold concentrations.” The near-threshold additive concentrations, a 6- to 100-fold higher additive concentration (depending on the off-taste intensity), and a mid-level additive concentration (halfway between the near-threshold and higher additive concentration) were evaluated to determine the effect on sweetness linger of a REBA solution. […]
Sensory evaluation using the protocol described in Example Set G then was used to evaluate the sweetness linger of the REBA solutions.

[2] = assay type: physicochemical
Procedure: A solution of rebaudioside A (>97% pure by HPLC) was prepared in double distilled water (12.5 gm in 50 mL, 25% concentration) by stirring the mixture at 40° C. for 5 minutes. An amorphous form of rebaudioside A was formed by immediately using the clear solution for spray drying with the Lab-Plant spray drier SD-04 instrument (Lab-Plant Ltd., West Yorkshire, U.K.). The solution was fed through the feed pump into the nozzle atomizer which atomized it into a spray of droplets with the help of a constant flow of nitrogen/air. […] This dry powder (11-12 g, H2O 6.74%) was discharged continuously from the drying chamber and was collected in a bottle.

[3] = Rate of dissolution of rebaudioside A polymorphs in H2O; assay type: physicochemical

## OC[C@H]1O[C@@](CO)(O[C@H]2O[C@H](CO)[C@@H](O)[C@H](O)[C@H]2O)[C@@H](O)[C@@H]1O [sugar, sucrose, reference compound]
[1]
  Sweetness Linger rating (defined for controls): 0

## rebaudioside A
[1]; Example Set G: 400 ppm REBA in citric acid/potassium citrate composition equivalent to that in a diet lemon-lime beverage, sweetness 3-4 min after water rinse
  sweetness linger: 5
[1]; Example Set H: 500 ppm REBA (H41: 360 ppm) in carbon-treated water, phosphoric acid (75%) to pH 2.4-2.5
  sweetness linger: 5
[1]
  Sweetness Linger rating (defined for controls): 5

## rebaudioside A [F]
[2]
  solubility in water at room temperature: > 35.0%

## rebaudioside A [Form 1]
[3]
  Rate of dissolution in H2O at 25° C.: Very low (<0.2%/ %/60 minutes
